Data from article PMC7127144 (Bioorganic & Medicinal Chemistry, 2006).

Tests used:
PBM cells = settings: human
HIV-1 (strain LAI) = format: cell-based
SARSCoV = test: organism not typed; format: cell-based; settings: read-out: SARSCoV IC50
[1] = system: Punta Toro virus (strain Adames)
in vitro [2] = settings: human
in vitro [3] = settings: human; remark: listed apart in the source

## Cc1cn([C@H]2C[C@H](N=[N+]=[N-])[C@@H](CO)O2)c(=O)[nH]c1=O [AZT]
PBM cells
  IC50: > 100 µM

## Nc1ncnc2c([C@@H]3C=C(CO)[C@@H](O)[C@H]3O)c[nH]c12 [Compound 1, (1′S,2′S,3′R)-4-Amino-7-(2′,3′-dihydroxy-4′-hydroxymethyl-4′-cyclopenten-1′-yl)-5H-pyrrolo[3,2-d]pyrimidine]
HIV-1 (strain LAI)
  Anti-HIV activity (in words): moderate anti-HIV activity

## Nc1nc(O)c2[nH]cc([C@@H]3C=C(CO)[C@@H](O)[C@H]3O)c2n1 [Compound 2, (1′S,2′S,3′R)-9-(2′,3′-Dihydroxy-4′-hydroxymethyl-4′-cyclopenten-1′-yl)-deazaguanosine]
SARSCoV
  IC50: > 100 µM
[1]
  Cytotoxicity in the Punta Toro virus assay (in words): without any cytotoxicity
In vitro [2]
  IC50: > 100 µM
In vitro [3]
  IC50: > 100 µM

## Nc1nc(=O)c([C@@H]2C=C(CO)[C@@H](O)[C@H]2O)c[nH]1 [Compound 3, (1′S,2′S,3′R)-5-(2′,3′-Dihydroxy-4′-hydroxymethyl-4′-cyclopenten-1′-yl)-isocytosine]
SARSCoV
  IC50: > 100 µM
In vitro [2]
  IC50: > 100 µM
In vitro [3]
  IC50: > 100 µM

## O=c1[nH]cc([C@@H]2C=C(CO)[C@@H](O)[C@H]2O)c(=O)[nH]1 [Compound 4, (1′S,2′S,3′R)-5-(2′,3′-Dihydroxy-4′-hydroxymethyl-4′-cyclopenten-1′-yl)uracil]
SARSCoV
  IC50: > 100 µM
[1]
  Cytotoxicity in the Punta Toro virus assay (in words): without any cytotoxicity
In vitro [2]
  IC50: > 100 µM
In vitro [3]
  IC50: > 100 µM
